Data from patent US7638554B2, “Flavanoids as chemotherapeutic, chemopreventive, and antiangiogenic agents” (SRI International, priority 2002, dated 2009).

Experiments:
[1] = system: HUVEC cells; experiment: Apoptosis in HUVEC cells, TUNEL assay; assay type: cell-based, human
Protocol: The antiproliferative mechanism was investigated by assaying for apoptosis using the method of Gavrieli et al. using a Promega (Madison, Wis.) apoptosis detection kit (Gavrieli et al. (1992) J Cell. Biol. 119:493-501). Briefly, HUVEC cells were treated with four log concentrations of SR 13179 (1 nM, 10 nM, 100 nM, and 1 μM) and fixed for terminal deoxyribonucleotide transferase-mediated dUTP nick end labeling (TUNEL) assay at 3 h and 6 h. The apoptotic cells were labeled with fluorescent dUTP at DNA strand breaks, and were counterstained with Hoechst 33258 to visualize nuclear morphology. Even at concentrations as low as 10 nM at 3 h, apoptosis was clearly evident as pyknotic nuclei. […] At six hours, there appeared to be massive apoptosis at higher concentrations of SR 13179, such that the cells were detached and lost during the washing steps. It thus appears that the antiproliferative effect of SR 13179 on vascular endothelial cells is mediated by apoptosis.

[2] = system: colon cancer cell line HCT-116; experiment: Growth inhibition, sulforhodamine-based protein determination, HCT-116; assay type: cell-based; details: Homo sapiens, HCT-116, 144 h; continuous exposure six days
Protocol: (§1) The novel compound SR 13179 was assayed for its ability to inhibit growth in several cancer cell lines. The cell lines studied included breast cancer cell line MCF-7 (ER+); prostate cancer cell lines LNCaP, PC3, and DU145; lung cancer cell line A427; ovarian cancer cell lines IGROV1, OVCAR-3, OVCAR-4, OVCAR-5, OVCAR-8, and SK-OV-3; and colon cancer cell lines COLO 205, HCC-2998, HCT-116, HCT-15, HT29, KM12, AND SW-620.
(§2) The growth assays for the breast cancer cell lines were conducted according to the method of Example 16. For the other cell lines, each assay was conducted with continuous exposure to the test compound at four log concentrations for six days, using a sulforhodamine-based protein determination to measure growth inhibition.

[3] = system: colon cancer cell line HCC-2998; experiment: Growth inhibition, sulforhodamine-based protein determination, HCC-2998; assay type: cell-based; details: Homo sapiens, HCC 2998, 144 h; continuous exposure six days
Protocol: as §1, §2

[4] = system: ovarian cancer cell line OVCAR-4; experiment: Growth inhibition, sulforhodamine-based protein determination, OVCAR-4; assay type: cell-based; details: Homo sapiens, OVCAR-4, 144 h; continuous exposure six days
Protocol: as §1, §2

[5] = system: MMP-2; experiment: Extracellular level of MMP-2, MCF-10CA1a cells; assay type: cell-based, human; details: 5 μM
Protocol: (§3) The effect of SR13179 on the extracellular levels of TIMP-2 as well as MMP-2 was also investigated. Treatment of MCF-10CA1a cells with SR13179 at 5 μM concentration caused 5- to 8-fold increase in the secreted level of TIMP-2 and a 2-fold decrease in the extracellular level of MMP-2. However, extracellular TIMP-2 protein was always associated with MMP-2 protein, even after the samples were boiled for 10 min and separated under the denaturing conditions of gel electrophoresis.

[6] = system: human TIMP-2 mRNA; experiment: Northern blot analysis of TIMP-2 mRNA, MCF10CA1a cells; assay type: cell-based; details: 0.5, 1, 3, or 5 μM
Protocol: Northern blotting. Ten μg of total RNA was electrophoresed in 1% agarose gel containing 6% formaldehyde, transferred to nylon membrane (Amersham Hybond N) by capillary blotting and fixed to the filter by exposure to UV. The blot was probed with a 600 bp ^32P-labeled cDNA sequence of human TIMP-2. Hybridizations were carried out at 42° C. in 50% formamide, 5×SSC, 5×Denhardt's solution, 0.1% SDS, and 0.3 mg/ml salmon sperm DNA. Filters were exposed to X-ray film (Kodak XAR-2) at −80° C. using an intensifying screen (Coronex Hi-Plus).
as §3

[7] = system: MCF-7 human breast cancer xenografts; experiment: MCF-7 human breast cancer xenografts in nude mice, i.p. administration; assay type: in vivo
Protocol: To evaluate the in vivo activity of novel compound SR 13179 against breast cancer, the compound was administered to female BALB/c nude mice that had been implanted with breast cancer cells. In this experiment, MCF-7 human breast cancer cells (2.5×10^6 cells) were implanted subcutaneously in both flanks of each mouse. Two days after cell inoculation, one estradiol pellet (10 μg/pellet) was implanted into each mouse by subcutaneous implantation. When tumor volumes reached 100 mm^3 (Day 0), SR 13179 was administered at a dose of 12.5 mg/kg, 25 mg/kg and 50 mg/kg intraperitoneally (i.p.) once a day, as a suspension in 0.5% hydroxypropyl cellulose. Body weights and tumor volumes were measured twice a week for 14 days. The tumor volume was expressed as % of initial tumor size which was designated as 100% on Day 0.

[8] = system: MMP-2; experiment: Western blotting of cell-associated MMP-2 protein, MCF-10-CA1a cells; assay type: cell-based, human; details: 1, 3, or 5 μM, 48 h
From the text: Western Blotting. Proteins were separated by gel electrophoresis using 4-12% pre-cast SDS-polyacrylamide gels (Invitrogen, Carlsbad, Calif.) and then electrophoretically transferred onto Hybond™-P membrane (Amersham Biosciences, Piscataway, N.J.). Blots were probed with specific antibodies (Santa Cruz Biotechnology, Inc). The ECL Plus Western Blotting Detection System of Amersham Biosciences (Piscataway, N.J.) and the procedure recommended by the manufacturer was used for the detection of antigens. Protein bands were quantified by analyzing the images obtained using an Alphaimager™ S-3400 (Alpha Innotech Corp., San Leandro, Calif.).
The effect of SR 13179 on cell-associated MMP-2 and MMP-9 protein levels was studied. MCF-10-CA1a cells were treated with SR 13179 at 1, 3, or 5 μM concentrations for 48 h. Untreated cells were used as control. Proteins were separated by SDS-Polyacrylamide gel electrophoresis and electrophoretically transformed onto Hybond™ P membrane (Amerhsam Biosciences). Blots were probed with specific antibodies (Santa Cruz Biotechnology Inc.).

[9] = system: ovarian cancer cell line OVCAR-8; experiment: Growth inhibition, sulforhodamine-based protein determination, OVCAR-8; assay type: cell-based; details: Homo sapiens, OVCAR-8, 144 h; continuous exposure six days
Protocol: as §1, §2

[10] = system: colon cancer cell line HT29; experiment: Growth inhibition, sulforhodamine-based protein determination, HT29; assay type: cell-based; details: Homo sapiens, HT-29, 144 h; continuous exposure six days
Protocol: as §1, §2

[11] = 12.5, 25 and 50 mg/kg i.p. once a day

## COc1cc(C2CC(O)c3ccc4ccccc4c3O2)cc(OC)c1OC (stereo not drawn) [SR 13179, 2-(3,4,5-trimethoxyphenyl)-3,4-dihydro-2H-benzo[h]chromen-4-ol]
[1]; 1 nM, 3 h
  Percent apoptosis: 10.3%
[1]; 1 nM, 6 h
  Percent apoptosis: 8.5%
[1]; 10 nM, 3 h
  Percent apoptosis: 10.3%
[1]; 10 nM, 6 h
  Percent apoptosis: cells detached
[1]; 100 nM, 3 h
  Percent apoptosis: 11.9%
[1]; 100 nM, 6 h
  Percent apoptosis: cells detached
[1]; 1 μM, 3 h
  Percent apoptosis: 16.7%
[1]; 1 μM, 6 h
  Percent apoptosis: cells detached
[1]; three hours after exposure, versus control
  increase in the percentage of detected apoptotic cells: two to three fold increase
[2]
  IC50: 310 nM
[3]
  IC50: 278 nM
[4]
  IC50: 423 nM
[5]
  decrease in the extracellular level of MMP-2: 2 fold
[6]
  TIMP-2 mRNA: dose-dependent induction
[7]; 12.5 mg/kg/day i.p., 14 days
  tumor growth: complete suppression of tumor growth
[7]; 50 mg/kg/day i.p., 14 days
  tumor size compared to the size at Day 0: slight regression in tumor size
[7]; [11]
  body weights of the treated mice: unaffected
  overt toxicity: no overt toxicity was observed
[8]
  cell-associated MMP-2 protein levels: does not affect
[9]
  IC50: 364 nM
[10]
  IC50: 430 nM
